Earlier results in patent US20240170108A1, “METHOD AND SYSTEM FOR GENE EXPRESSION PREDICTION-BASED SCREENING OF DRUG-LIKE MOLECULES” (Tata Consultancy Services Limited, priority 2022, published 2024).

Test system: VCAP cell line
Conditions: 10 μM concentration dose, 6 hrs of exposure

Compound: O=c1cc(-c2ccc(O)cc2)oc2cc(O[C@@H]3O[C@H](CO)[C@@H](O)[C@H](O)[C@H]3O)cc(O)c12 [Cosmosiin]
- Characteristic Direction, APP (Gene ID 351) (gene APP): −0.0047
- Characteristic Direction, ARHGEF12 (Gene ID 23365) (gene ARHGEF12): −0.0376
- Characteristic Direction, ASAH1 (Gene ID 427) (gene ASAH1): −0.0172
- Characteristic Direction, ATF1 (Gene ID 466) (gene ATF1): −0.0167
- Characteristic Direction, BRCA1 (Gene ID 672) (gene BRCA1): −0.0305
- Characteristic Direction, CSNK1A1 (Gene ID 1452) (gene CSNK1A1): −0.0011
- Characteristic Direction, EED (Gene ID 8726) (gene EED): −0.0170
- Characteristic Direction, EGF (Gene ID 1950) (gene EGF): 0.0114
- Characteristic Direction, ETV1 (Gene ID 2115) (gene ETV1): −0.0108
- Characteristic Direction, FOXO3 (Gene ID 2309) (gene FOXO3): −0.0187
- Characteristic Direction, HLA-DMA (Gene ID 3108) (gene HLA-DMA): −0.0178
- Characteristic Direction, IL1B (Gene ID 3553) (gene IL1B): 0.0082
- Characteristic Direction, NFATC4 (Gene ID 4776) (gene NFATC4): −0.0087
- Characteristic Direction, NOS3 (Gene ID 4846) (gene NOS3): 0.0363
- Characteristic Direction, PSMD4 (Gene ID 5710) (gene PSMD4): −0.0161
- Characteristic Direction, PSME1 (Gene ID 5720) (gene PSME1): −0.0142
- Characteristic Direction, RALA (Gene ID 5898) (gene RALA): 0.0206
- Characteristic Direction, RHEB (Gene ID 6009) (gene RHEB): 0.0037
- Characteristic Direction, RHOA (Gene ID 387) (gene RHOA): −0.0166
- Characteristic Direction, SERPINE1 (Gene ID 5054) (gene SERPINE1): −0.0407
- Characteristic Direction, SOX2 (Gene ID 6657) (gene SOX2): 0.0276
- Characteristic Direction, TBP (Gene ID 6908) (gene TBP): −0.0084
- Characteristic Direction, TERT (Gene ID 7015) (gene TERT): 0.0054
